Values joined by “and” are separate entries in the source; they are usually repeats but may differ in a detail not shown here. Identical values can stand only once.
Assays:
GR (human) = molecular target: T1, GR (human) (Homo sapiens, UniProt P04150); test: Radioligand binding to GR ([3H]dexamethasone, IM-9 cells cytosol)
T1 construct: GR (human) (agonist radioligand) IM-9 cells (cytosol); endogenous in cells; host or cells: IM-9 cells (cytosol)
T1 sequence (P04150 1-777): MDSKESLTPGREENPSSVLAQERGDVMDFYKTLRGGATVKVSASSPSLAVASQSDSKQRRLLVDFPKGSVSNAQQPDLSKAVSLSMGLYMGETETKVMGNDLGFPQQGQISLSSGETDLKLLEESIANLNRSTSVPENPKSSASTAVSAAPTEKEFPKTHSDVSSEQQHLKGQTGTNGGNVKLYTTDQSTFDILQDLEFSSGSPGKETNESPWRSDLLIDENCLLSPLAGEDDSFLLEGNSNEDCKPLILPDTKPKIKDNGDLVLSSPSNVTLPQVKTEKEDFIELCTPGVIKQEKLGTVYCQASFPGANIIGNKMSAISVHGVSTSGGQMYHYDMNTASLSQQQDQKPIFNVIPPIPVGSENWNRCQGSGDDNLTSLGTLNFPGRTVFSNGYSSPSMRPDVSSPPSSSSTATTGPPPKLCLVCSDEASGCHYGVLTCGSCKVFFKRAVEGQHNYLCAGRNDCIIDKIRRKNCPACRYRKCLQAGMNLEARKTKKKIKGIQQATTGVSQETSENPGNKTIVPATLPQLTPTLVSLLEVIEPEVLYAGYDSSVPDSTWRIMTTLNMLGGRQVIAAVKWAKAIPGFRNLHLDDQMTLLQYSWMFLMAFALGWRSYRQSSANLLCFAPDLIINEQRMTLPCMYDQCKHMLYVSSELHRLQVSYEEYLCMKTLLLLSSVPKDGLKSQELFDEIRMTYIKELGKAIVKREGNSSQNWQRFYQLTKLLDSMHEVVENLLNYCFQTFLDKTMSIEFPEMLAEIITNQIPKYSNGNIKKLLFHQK
Protocol: Radioligand binding assays were performed with the cell extracts and ligands as detailed below. Complete methodology is contained within the cited publications. Kd values were determined by Non-Specific Incubation Detection Method.
GR (human) (agonist radioligand) IM-9 cells (cytosol) [^3H]dexamethasone 1.5 nM 1.5 nM triamcinolone (10 μM) 6 h 4° C. Scintillation counting (Clark, A. F et al. (1996) Invest. Ophtalmol. Vis. Sci., 37: 805-813). ER (nonselective) (human) (agonist radioligand) MCF-7 cells (cytosol) [^3H]estradiol 0.4 nM 0.2 nM 17-β-estradiol (6 μM) 20 h 4° C. Scintillation counting (Parker, G. J et al.(2000) J. Biomol. Screen., 5: 77-88).
The results are expressed as a percent of control specific binding measured specific binding *100 control specific binding and as a percent inhibition of control specific binding 100-(measured specific binding*100) control specific binding obtained in the presence of compoundn.
The IC50 values (concentration causing a half-maximal inhibition of control specific binding) and Hill coefficients (nH) were determined by non-linear regression analysis of the competition curves generated with mean replicate values using Hill equation curve fitting.
The inhibition constants (Ki) were calculated using the Cheng Prusoff equation:
wherein L=concentration of radioligand in the assay, and KD=affinity of the radioligand for the receptor. […]

VCaP cells = test: Prostate Cancer Cell Viability Assay-VCaP; assay type: cell-based; details: Homo sapiens, 120 h, 5 days incubation, CellTiter-Glo
Protocol: VCaP cells were counted and seeded into black 384-well plates with clear bottoms at a concentration of 125,000 cells per mL in phenol red-free DMEM containing 10% Charcoal Stripped Serum. 16 μL of the suspension was added per well and incubated for 48 h to allow the cells to adhere. After 48 hours, a 12 point serial semilog dilution of each compound was added to the cells in 16 μL at a final concentration of 100 μM to 0.0003 μM. The compounds of Formula (I) were also run in antagonist mode using 30 pM R1881 in which 8 μL of the compound was added to the cells followed by 8 μL of R1881. After 5 days of incubation at 37° C., 16 μL Of CellTiter-Glo (Promega) was added to the cells and the relative luminescence units (RLUs) of each well determined using the Envision. The percent stimulation and % inhibition were determined for each sample and plotted using GraphPad Prism.

LNCaP WT = test: LNCaP Proliferation Assay (LNCaP WT); assay type: cell-based; details: Homo sapiens, 96 h, 4 days, normalized to 0.1 nM R1881 stimulation
Protocol: (§1) LNCaP cells were expanded in RPMI 10% FBS in T150 flasks. The cells were dislodged with 0.25% Trypsin, washed in complete media, centrifuged (300 g, 3 min), and the supernatant aspirated. The cells were resuspended in RPMI phenol-red free media with 1% charcoal-stripped serum (CSS) and counted using a ViCELL (Beckman-Coulter). 7500 cells were added to each well of a white optical bottom 384-well plate and incubated for 2 days at 37° C. 5% CO2. Compound dilutions were prepared in RPMI CSS using 50 mM stock solutions and added to the cells either alone (agonist mode) or in combination with 0.1nM R1881 (antagonist mode). The plates were incubated for 4 days, followed by addition of CellTiter-Glo Luminescent Cell Viability kit reagent (Promega). The plates were placed on a shaker at 3000 rpm for 10 minutes and then read on an EnVision plate reader (Perkin Elmer) using Luminescence assay default settings. The data was analyzed, normalized to 0.1 nM R1881 stimulation, and plotted in GraphPad Prism.

LNCaP F876L = test: LNCaP Proliferation Assay (LNCaP F876L); assay type: cell-based; details: Homo sapiens, 96 h, 4 days, normalized to 0.1 nM R1881 stimulation
Protocol: as §1

rGABA-gated Cl− channel = test: GABA-gated Cl Channel Antagonist Radioligand Binding Assay ([35S]-TBPS, cerebral cortex membranes); set-up: species or system rat; details: 3 nM [35S]-TBPS
Protocol: GABA-gated Cl Chanel assays were performed at CEREP according to the following method. Membrane homogenates of cerebral cortex (120 μg protein) were incubated for 120 min at 22° C. with 3 nM [^35S]-TBPS in the absence or presence of the test compound in a buffer containing 50 mM Na2HPO4/KH2PO4 (pH 7.4) and 500 mM NaCl. Nonspecific binding was determined in the presence of 20 μM picrotoxinin. Following incubation, the samples were filtered rapidly under vacuum through glass fiber filters (GF/B, Packard) presoaked with 0.3% PEI and rinsed several times with ice-cold 50 mM Tris-HCl using a 96-sample cell harvester (Unifilter, Packard). The filters were dried then counted for radioactivity in a scintillation counter (Topcount, Packard) using a scintillation cocktail (Microscint 0, Packard). The results are expressed as a percent inhibition of the control radio ligand specific binding. The standard reference compound is picrotoxinin, which was tested in each experiment at several concentrations to obtain a competition curve from which its ICso was calculated. In this assay, the following representative compounds disclosed herein had recorded activities at a 10 μM single point concentration in the GABA-gated Cl-Channel Binding Assay.

- Ki (GR (human); Cheng Prusoff, [3H]-dexamethasone): 9.9 µM
- IC50 (GR (human); [3H]-dexamethasone 1.5 nM, IM-9 cytosol): 20 µM
- IC50 (VCaP cells): 0.076 µM
- IC50 (rGABA-gated Cl− channel): 13 µM
- % inhibition @ 10 μM (rGABA-gated Cl− channel; 10 μM single point): 42% and 49%
SMILES: CN1CCC(Oc2ccc(N3C(=S)N(c4cnc(C#N)c(C(F)(F)F)c4)C(=O)C34CCC4)cc2)CC1 [Cpd 85, 5-[8-[4-[(1-methyl-4-piperidyl)oxy]phenyl]-5-oxo-7-thioxo-6,8-diazaspiro[3.4]octan-6-yl]-3-(trifluoromethyl)pyridine-2-carbonitrile]
- IC50 (LNCaP WT): 3.29 µM
- IC50 (LNCaP F876L): 8.87 µM

Source: patent US20190209539A1, “THIOHYDANTOIN ANDROGEN RECEPTOR ANTAGONISTS FOR THE TREATMENT OF CANCER” (Janssen Pharmaceutica NV, priority 2016, published 2019)
